What all share (format): cell-based, human
The subject of assay [1] is HLA-A2.1 restricted melanoma specific CTL lines (VMM5, VMM6, DM169-13, DM204-13, LD1). The assay can be described thus: Chromium release assay, peptide-preincubated T2 cells, panel of HLA-A2.1 restricted melanoma specific CTL lines from different patients. The settings on record: for activity in reconstituting recognition by CTL lines from 3 additional patients: at equal or higher concentrations than 946 (0.1-1 nM). On the procedure:
Cell-mediated killing was determined in vitro using a 4-h chromium release assay. 51Cr-labeled target cells were plated at 2×10^3 cells/well in triplicate on 96-well V-bottom plates (Costar, Cambridge, Mass.) with varying numbers of effector cells in a final volume of 250 microl. Wells containing either culture medium and target cells only or 1 M HCl and target cells served as background 51Cr release controls and total release controls, respectively. The plates were centrifuged at 100×g for 3 min and incubated at 37° C. in 5% CO2 for 4 h. The plates were again centrifuged, and 0.20 ml of medium from each well was removed for counting in a gamma counter. The cytotoxic index was calculated as: [formula] […] Effector cells were added in 100 microl assay medium to give an E:T ratio of 10:1, and were incubated at 37° C. The remainder of the assay is performed as in standard chromium release assays described above. Wells containing peptide and target cells but no CTL were used as controls to rule out toxicity of the peptides themselves. […] To determine whether peptide 946 was a generally relevant epitope for HLA-A2.1 restricted melanoma specific CTL, lines from 3 additional patients were tested. CTL lines VMM5 and VMM6 were generated by stimulation with autologous tumor. VMM5 CTL were maintained on allogeneic A2.1^+ melanoma DM6 after specificity was obtained, C. L. Slingluff Jr. et al., J. Immunol. 150, 2955 (1993). DM169-13 and DM204-13 CTL were generated by stimulation with allogeneic A2.1^+ melanoma DM13, N. J. Crowley et al., J. Immunol. 146, 1692 (1991), then maintained with DM6. LD1 CTL were stimulated on a rotating schedule of stimulating logeneic A2.1^+ melanomas DM6, DM13, and DM93. DM93 is an HLA-A2.1^+ melanoma used as a positive control. […] T2 cells were preincubated with the peptides whose (M+H)^+ values are indicated in the legend, FIG. 12. […] All other peptides were used at a concentration of 10 nM except 250 nM for DM169 and 0.1 nM for LD1. Asterisks (*) mark peptides not evaluated. The sequences of the peptides 864 (Seq. ID No. 88), 946 (Seq. ID No. 39), 1046 (Seq. ID No. 89) are described in the text. Peptide 1030 has the sequence […] (SEQ ID NO:90), (related to peptide from tyrosinase. molecule). […] An additional peptide Try […] (SEQ ID NO 96), which originates from tyrosinase and had been identified by Boon and colleagues as an HLA-A2.1 restricted melanoma specific T cell epitope, was also evaluated. None of 4 CTL lines recognized cells incubated with this peptide.

For assay [2], the system named is melanoma specific CTL VMM5. The assay can be described thus: Reconstitution of melanoma-specific CTL epitope on peptide-pulsed 51Cr-labelled T2 cells, chromium release assay, VMM5 CTL. The conditions noted are these: for effect on epitope reconstitution: concentrations up to 10 nM. The protocol: (§1) Cell-mediated killing was determined in vitro using a 4-h chromium release assay. 51Cr-labeled target cells were plated at 2×10^3 cells/well in triplicate on 96-well V-bottom plates (Costar, Cambridge, Mass.) with varying numbers of effector cells in a final volume of 250 microl. Wells containing either culture medium and target cells only or 1 M HCl and target cells served as background 51Cr release controls and total release controls, respectively. The plates were centrifuged at 100×g for 3 min and incubated at 37° C. in 5% CO2 for 4 h. The plates were again centrifuged, and 0.20 ml of medium from each well was removed for counting in a gamma counter. The cytotoxic index was calculated as: [formula] […] Effector cells were added in 100 microl assay medium to give an E:T ratio of 10:1, and were incubated at 37° C. The remainder of the assay is performed as in standard chromium release assays described above. Wells containing peptide and target cells but no CTL were used as controls to rule out toxicity of the peptides themselves. […] HLA-A2.1 molecules were immunoaffinity purified from detergent lysates of the human melanoma cell line DM6. The associated peptides were released by acid extraction, separated from HLA-A2.1 and antibody by filtration, and fractionated by multiple stages of HPLC. […] L. Slingluff Jr., et al, J. Immunol. (1993) […], 2955, by using a gradient of acetonitrile/0.085% trifluoroacetic acid (TFA) in 0.1% TFA with acetonitrile increasing from 0 to 9% (0-5 min), 9 to 36%(5-55min), 36 to 60% (55-62min) (v/v), collecting one-minute fractions. In FIG. 8B Fractions 2 and 3 from the separation shown in panel A were pooled and rechromatographed with a 55 minute gradient of 0 to 30% acetonitrile/0.1% heptafluorobutyric acid (HFBA) in 0.1% HFBA, collecting one-minute fractions. For both panels, peptide fractions were incubated for 2-3 h with 2×10^3 51Cr-labelled T2 cells in 150 ll assay media per well in 96-well plates. […]

The test system of assay [3] is melanoma specific CTL DM204-13. The assay can be described thus: Reconstitution of melanoma-specific CTL epitope on peptide-pulsed 51Cr-labelled T2 cells, chromium release assay, DM204-13 CTL. The settings on record: for effect on epitope reconstitution: concentrations up to 10 nM. On the procedure: as §1
Setting [4] is: T2 cells, synthetic peptide with equimolar Leu/Ile at X, read-out: half-maximal reconstitution of the epitope.

Where no end group is shown, it is not given here.

With SMAPGNTSV [Peptide 864], in assay [1], the “activity in reconstituting recognition by CTL lines from 3 additional patients” value is “neither 864 nor 1046 had any detectable activity”. Further, the “effect on epitope reconstitution” value in assay [2] and in assay [3] was “no effect” throughout.

On to “Ala Xaa Tyr Asp Ala Thr Tyr Glu Thr [Peptide 1046]”, for which, in assay [1], the “activity in reconstituting recognition by CTL lines from 3 additional patients” value is “neither 864 nor 1046 had any detectable activity”. Further, the “effect on epitope reconstitution” value in assay [2] and in assay [3] was “no effect” each time.

On to “Tyr Xaa Glu Pro Gly Pro Val Thr Ala [Peptide 946]”, for which the EC50 was 1 to 10 pM in assay [1] (dose response curves for two of the 3 additional CTL lines, read-out: half-maximal lysis); 1 to 10 pM in assay [2] (setting [4]); 1 to 10 pM in assay [3] (setting [4]). In addition, the “patients / CTL lines whose T-cells recognized the HLA-A2.1-associated peptide” value in assay [1] (five melanoma-specific CTL lines from five patients) is 5 out of 5 and all five lines recognize. Besides, the “reconstitution of recognition by CTL lines from 3 additional patients” value in assay [1] (peptide at 0.1-1 nM, T2 cells, FIG. 12) is reported as “reconstituted recognition”.

Turning to “Try Met Asn Gly Thr Met Ser Gln Val (YMNGTMSQV) [SEQ ID NO 96, originates from tyrosinase, reference compound]”, in assay [1] (4 CTL lines tested), the “CTL lines that recognized cells incubated with the peptide” value is given as “None of 4”.

The values above are taken from patent publication US6660276B1, “Peptides recognized by melanoma-specific cytotoxic lymphocytes, and uses therefor” (The University of Virginia Patent Foundation, priority 1994, dated 2003).
